In patent US10328077B2 (CELGENE CORPORATION, priority 2016, dated 2019):
Structures can show the parent of a compound that is named as a salt. Where two headings read alike, the source gives them in different places.

Key:
human LSD-1 = human LSD-1 (Homo sapiens (Human), UniProt O60341); test: In vitro enzyme inhibition assay LSD-1 (TR-FRET); format: biochemical
Excerpt: This assay determines the ability of a test compound to inhibit LSD-1 demethylase activity.
The enzymatic assay of LSD-1 activity is based on Time Resolved-Fluorescence Resonance Energy Transfer (TR-FRET) detection.

[1] = test system: CD11b expression in THP-1 (AML) cells; test: LSD-1 CD11b cellular assay (flow cytometry); settings: Homo sapiens, THP-1, 96 h, read-out: THP-1 IC50
Description: To analyze LSD-1 inhibitor efficacy in cells, a CD11b flow cytometry assay was performed. […] LSD-1 test compounds were serially diluted in DMSO. The dilutions were added to each well accordingly to a final concentration of 0.2% DMSO. The cells were incubated at 37 degrees Celsius in 5% CO2 for 4 days. 250 μL of each well was transferred to a well in a 96 well round bottom plate. The plate was centrifuged at 1200 rpm at 4 degrees Celsius in a Beckman Coulter Alegra 6KR centrifuge for 5 minutes. The media was removed leaving the cells at the bottom of the wells. The cells were washed in 100 μL cold HBSS (Hank's Balanced Salt Solution) plus 2% BSA (Bovine Serum Albumin) solution and centrifuged at 1200 rpm at 4 degrees Celsius for 5 minutes. The wash was removed. […] The cells were centrifuged and washed two times in 100 μl HBSS plus 2% BSA. After the final spin the cells were resuspended in 100 μL HBSS plus 2% BSA containing 1 μg/mL DAPI (4′,6-diamidino-2-phenylindole). The cells were then analyzed by flow cytometry in a BD FACSAria machine. Cells were analyzed for CD11b expression. The percent of CD11b expressing cells for each inhibitor concentration was used to determine an IC50 curve for each compound analyzed.

[2] = TR-FRET, H3K4me1-biotin labeled peptide

Question: Which IC50 (human LSD-1; [2]) does the source give for `COc1ccc(-c2c(-c3ccc(C#N)c(F)c3)nc(N3CC(CN)C3)n(C)c2=O)cc1` [Example 69, 4-[2-(3-aminomethyl-azetidin-1-yl)-5-(4-methoxy-phenyl)-1-methyl-6-oxo-1,6-dihydro-pyrimidin-4-yl]-2-fluoro-benzonitrile] here?
Answer: Its IC50 is under 100 nM.

Question: What does the source list for `Cn1c(N2CCC(N)CC2)nc(-c2ccc(C#N)c(F)c2)c(-c2ccc(OCCO)cc2)c1=O` [Example 96, 4-[2-(4-aminopiperidin-1-yl)-5-[4-(2-hydroxyethoxy)phenyl]-1-methyl-6-oxopyrimidin-4-yl]-2-fluorobenzonitrile]?
Answer: IC50 (human LSD-1; [2]): < 100 nM; IC50 [1]: < 100 nM

Question: With `COc1ccc(-c2c(-c3ccc(C#N)c(F)c3)nc(N3CCCNCC3)n(C)c2=O)cc1F` [Example 46, 4-[2-[1,4]diazepan-1-yl-5-(3-fluoro-4-methoxy-phenyl)-1-methyl-6-oxo-1,6-dihydro-pyrimidin-4-yl]-2-fluoro-benzonitrile] as the molecule, how does the IC50 (human LSD-1; [2]) read?
Answer: The IC50 was under 100 nM.

Question: What about the IC50 [1] of the same molecule?
Answer: The IC50 was under 100 nM.

Question: With `COc1ccc(-c2c(-c3ccc(C#N)c(F)c3)nc(N3CC[C@@H](N)C3)n(C)c2=O)cc1F` [Example 27, 4-[2-((3R)-3-aminopyrrolidinyl)-5-(3-fluoro-4-methoxyphenyl)-1-methyl-6-oxohydropyrimidin-4-yl]-2-fluorobenzenecarbonitrile] as the molecule, how does the IC50 (human LSD-1; [2]) read?
Answer: The IC50 was under 100 nM.

Question: And the IC50 [1]?
Answer: The IC50 was under 100 nM.

Question: With `COc1ncc(-c2c(-c3ccc(C#N)c(F)c3)nc(N3CCC(N)CC3)n(C)c2=O)cc1F` [Example 26, 4-[2-(4-aminopiperidyl)-5-(5-fluoro-6-methoxy(3-5,6-dihydropyridyl))-1-methyl-6-oxohydropyrimidin-4-yl]-2-fluorobenzenecarbonitrile] as the molecule, how does the IC50 (human LSD-1; [2]) read?
Answer: Its IC50 is under 100 nM.

Question: How did the IC50 [1] turn out when `Cn1c(N2CCC(N)CC2)nc(-c2ccc(C#N)c(F)c2)c(-c2ccc3cc[nH]c3c2)c1=O` [Example 75, 4-[2-(4-amino-piperidin-1-yl)-5-(1H-indol-6-yl)-1-methyl-6-oxo-1,6-dihydro-pyrimidin-4-yl]-2-fluoro-benzonitrile] was run?
Answer: Its IC50 is under 100 nM.

Question: `COc1ccc(-c2c(-c3ccc(C#N)c(F)c3)nc(N3CCCNCC3)n(C)c2=O)cn1` [Example 61, 4-[2-[1,4]diazepan-1-yl-5-(6-methoxy-pyridin-3-yl)-1-methyl-6-oxo-1,6-dihydro-pyrimidin-4-yl]-2-fluoro benzonitrile] was tested. Which IC50 (human LSD-1; [2]) did it give?
Answer: Its IC50 is under 100 nM.

Question: For `COc1ccc(-c2c(-c3ccc(C#N)cc3)nc(N3CCC(N)CC3)n(C)c2=O)cc1` [Example 2, 4-[2-(4-amino-piperidin-1-yl)-5-(4-methoxy-phenyl)-1-methyl-6-oxo-1,6-dihydro-pyrimidin-4-yl]-benzonitrile], which IC50 [1] is on record?
Answer: The IC50 was under 100 nM.

Question: How did the IC50 (human LSD-1) turn out when `COc1ccc(-c2c(-c3ccc(C#N)c(F)c3)nc(N(C)C3CCNCC3)n(C)c2=O)cc1` [Example 55, 2-fluoro-4-[5-(4-methoxy-phenyl)-1-methyl-2-(methyl-piperidin-4-yl-amino)-6-oxo-1,6-dihydro-pyrimidin-4-yl]-benzonitrile] was run?
Answer: The IC50 was under 100 nM.

Question: With `COc1ccc(-c2c(-c3cccc(C#N)c3)nc(N3CCC(N)CC3)n(C)c2=O)cc1F` [Example 118, 3-[2-(4-aminopiperidin-1-yl)-5-(3-fluoro-4-methoxyphenyl)-1-methyl-6-oxopyrimidin-4-yl]benzonitrile] as the molecule, how does the IC50 (human LSD-1; [2]) read?
Answer: Its IC50 is over 10000 nM.

Question: For `CN(C)c1ncc(-c2c(-c3ccc(C#N)c(F)c3)nc(N3CCC(N(C)C)CC3)n(C)c2=O)cn1` [Example 81, 4-[2′-dimethylamino-2-(4-dimethylamino-piperidin-1-yl)-1-methyl-6-oxo-1,6-dihydro-[5,5′]bipyrimidinyl-4-yl]-2-fluoro-benzonitrile], which IC50 (human LSD-1; [2]) is on record?
Answer: The IC50 was under 100 nM.

Question: Which IC50 (human LSD-1; [2]) does the source give for `COc1ccc(-c2c(-c3ccc(C#N)c(F)c3)nc(N3CCC(N)CC3)n(CC(=O)O)c2=O)cc1` [Example 15, [2-(4-amino-piperidin-1-yl)-4-(4-cyano-3-fluoro-phenyl)-5-(4-methoxy-phenyl)-6-oxo-6H-pyrimidin-1-yl]-acetic acid] here?
Answer: Its IC50 is under 100 nM.

Question: With `Cc1ccc(-c2c(-c3ccc(C#N)c(F)c3)nc(N3CCC(N(C)C)CC3)n(C)c2=O)cn1` [Example 82, 4-[2-(4-dimethylamino-piperidin-1-yl)-1-methyl-5-(6-methyl-pyridin-3-yl)-6-oxo-1,6-dihydro-pyrimidin-4-yl]-2-fluoro-benzonitrile] as the molecule, how does the IC50 (human LSD-1; [2]) read?
Answer: Its IC50 is under 100 nM.

Question: With `COc1ccc(-c2c(-c3ccccc3C#N)nc(N3CCC(N)CC3)n(C)c2=O)cc1F` [Example 119, 2-[2-(4-aminopiperidin-1-yl)-5-(3-fluoro-4-methoxyphenyl)-1-methyl-6-oxopyrimidin-4-yl]benzonitrile] as the molecule, how does the IC50 (human LSD-1; [2]) read?
Answer: Its IC50 is over 10000 nM.

Question: `COc1ccc(-c2c(-c3ccc(Cl)c(F)c3)nc(N3CCC(N)CC3)n(C)c2=O)cc1` [Example 111, 2-(4-amino-piperidin-1-yl)-6-(4-chloro-3-fluoro-phenyl)-5-(4-methoxy-phenyl)-3-methyl-3H-pyrimidin-4-one] was tested. Which IC50 [1] did it give?
Answer: The IC50 was 100 to 1000 nM.

Question: With `COc1ccc(-c2c(-c3ccc(C#N)cc3)nc(N3CCCNCC3)n(C)c2=O)cn1` [Example 62] as the molecule, how does the IC50 (human LSD-1; [2]) read?
Answer: The IC50 was under 100 nM.

Question: For `Cn1c(N2CCC(N)CC2)nc(-c2ccc(C#N)cc2)c(-c2ccc3c(cnn3C)c2)c1=O` [Example 33, 4-[2-(4-aminopiperidyl)-1-methyl-5-(1-methyl(1H-indazol-5-yl))-6-oxohydropyrimidin-4-yl]benzenecarbonitrile], which IC50 [1] is on record?
Answer: Its IC50 is under 100 nM.

Question: How did the IC50 (human LSD-1; [2]) turn out when `Cn1c(N2CCC(N)CC2)nc(-c2ccc(C#N)c(F)c2)c(C#N)c1=O` [Example 19, 2-(4-amino-piperidin-1-yl)-4-(4-cyano-3-fluoro-phenyl)-1-methyl-6-oxo-1,6-dihydro-pyrimidine-5-carbonitrile] was run?
Answer: Its IC50 is under 100 nM.

Question: With `Cc1ccc(-c2c(-c3ccc(C#N)cc3)nc(N3CCC(N)CC3)n(C)c2=O)cc1` [Example 1, 4-(2-(4-aminopiperidin-1-yl)-1-methyl-6-oxo-5-p-tolyl-1,6-dihydropyrimidin-4-yl)benzonitrile, HCl salt] as the molecule, how does the IC50 [1] read?
Answer: Its IC50 is under 100 nM.

Question: With `Cn1c(N2CCC(N)CC2)nc(-c2ccc(C#N)c(F)c2)c(-c2ccc3c(ccn3C)c2)c1=O` [Example 74, 4-[2-(4-amino-piperidin-1-yl)-1-methyl-5-(1-methyl-1H-indol-5-yl)-6-oxo-1,6-dihydro-pyrimidin-4-yl]-2-fluoro-benzonitrile] as the molecule, how does the IC50 [1] read?
Answer: Its IC50 is under 100 nM.

Question: Which IC50 [1] does the source give for `Cn1c(N2CCC(N)CC2)nc(-c2ccc(C#N)c(F)c2)c(-c2ccc(C(F)(F)F)nc2)c1=O` [Example 23, 4-{2-(4-aminopiperidyl)-1-methyl-6-oxo-5-[6-(trifluoromethyl) (3-pyridyl)] hydropyrimidin-4-yl}-2-fluorobenzenecarbonitrile] here?
Answer: The IC50 was under 100 nM.

Question: `CNC1CCN(c2nc(-c3ccc(C#N)c(F)c3)c(-c3ccc(C)nc3)c(=O)n2C)CC1` [Example 21, 2-fluoro-4-[1-methyl-2-(4-methylamino-piperidin-1-yl)-5-(6-methyl-pyridin-3-yl)-6-oxo-1,6-dihydro-pyrimidin-4-yl]-benzonitrile] was tested. Which IC50 (human LSD-1; [2]) did it give?
Answer: Its IC50 is under 100 nM.

Question: For `COc1ccc(-c2c(-c3ccc(C#N)c(F)c3)nc(NC3CCNCC3)n(C)c2=O)cc1` [Example 53, 2-fluoro-4-[5-(4-methoxy-phenyl)-1-methyl-6-oxo-2-(piperidin-4-ylamino)-1,6-dihydro-pyrimidin-4-yl]-benzonitrile], which IC50 (human LSD-1; [2]) is on record?
Answer: The IC50 was under 100 nM.

Question: With `Cn1c(N2CCC(N)CC2)nc(-c2ccc(C#N)c(F)c2)c(-c2ccc(F)cc2)c1=O` [Example 101, 4-[2-(4-aminopiperidin-1-yl)-5-(4-fluorophenyl)-1-methyl-6-oxopyrimidin-4-yl]-2-fluorobenzonitrile] as the molecule, how does the IC50 (human LSD-1; [2]) read?
Answer: The IC50 was under 100 nM.

Question: `COc1ccc(-c2c(-c3ccc(C#N)cc3)nc(NC[C@@H]3CCNC3)n(C)c2=O)cc1F` [Example 45, 4-{5-(3-fluoro-4-methoxy-phenyl)-1-methyl-6-oxo-2-[(3R)-(pyrrolidin-3-ylmethyl)-amino]-1,6-dihydro-pyrimidin-4-yl}-benzonitrile] was tested. Which IC50 (human LSD-1; [2]) did it give?
Answer: The IC50 was under 100 nM.

Question: Which IC50 (human LSD-1; [2]) does the source give for `Cn1c(N2CCC(N)CC2)nc(-c2ccccc2)c(-c2ccc3c(ccn3C)c2)c1=O` [Example 114, 2-(4-amino-piperidin-1-yl)-3-methyl-5-(1-methyl-1H-indol-5-yl)-6-phenyl-3H-pyrimidin-4-one] here?
Answer: Its IC50 is over 10000 nM.

Question: With `COc1ccc(-c2c(-c3ccc(C#N)cc3)nc(NC[C@H]3CCNC3)n(C)c2=O)cc1F` [Example 44, 4-{5-(3-fluoro-4-methoxy-phenyl)-1-methyl-6-oxo-2-[(3S)-(pyrrolidin-3-ylmethyl)-amino]-1,6-dihydro-pyrimidin-4-yl}-benzonitrile] as the molecule, how does the IC50 (human LSD-1; [2]) read?
Answer: The IC50 was under 100 nM.

Question: With `Cn1c(N2CCC(N)CC2)nc(-c2ccc(C#N)c(F)c2)cc1=O` [Example 108, 4-[2-(4-aminopiperidin-1-yl)-1-methyl-6-oxopyrimidin-4-yl]-2-fluorobenzonitrile] as the molecule, how does the IC50 (human LSD-1; [2]) read?
Answer: The IC50 was under 100 nM.

Question: How did the IC50 (human LSD-1; [2]) turn out when `COc1ccc(-c2c(-c3ccc(C#N)c(F)c3)nc(N3CCNCC3)n(C)c2=O)cc1F` [Example 47, 2-fluoro-4-[5-(3-fluoro-4-methoxy-phenyl)-1-methyl-6-oxo-2-piperazin-1-yl-1,6-dihydro-pyrimidin-4-yl]-benzonitrile] was run?
Answer: Its IC50 is under 100 nM.

Question: For `COc1ccc(-c2c(-c3ccc(C#N)c(F)c3)nc(N3CCC[C@H](N)C3)n(C)c2=O)cc1F` [Example 28, 4-[2-((3S)-3-amino-piperidin-1-yl)-5-(3-fluoro-4-methoxy-phenyl)-1-methyl-6-oxo-1,6-dihydro-pyrimidin-4-yl]-2-fluoro-benzonitrile], which IC50 (human LSD-1; [2]) is on record?
Answer: The IC50 was under 100 nM.

Question: Which IC50 (human LSD-1; [2]) does the source give for `CNC(=O)c1ccc(-c2c(-c3ccc(C#N)cc3)nc(N3CCC(N)CC3)n(C)c2=O)cc1F` [Example 40, {4-[2-(4-aminopiperidyl)-6-(4-cyanophenyl)-3-methyl-4-oxo-(3-hydropyrimidin-5-yl)]-2-fluorophenyl}-N-methylcarboxamide] here?
Answer: The IC50 was under 100 nM.

Question: `Cn1c(N2CCC(N)CC2)nc(-c2ccc(C#N)c(F)c2)c(C#N)c1=O` [Example 121, 2-(4-amino-piperidin-1-yl)-4-(4-cyano-3-fluoro-phenyl)-1-methyl-6-oxo-1,6-dihydro-pyrimidine-5-carbonitrile] was tested. Which IC50 (human LSD-1; [2]) did it give?
Answer: The IC50 was 100 to 1000 nM.

Question: With `C#Cc1c(-c2ccc(C#N)c(F)c2)nc(N2CCC(N)CC2)n(C)c1=O` [Example 110] as the molecule, how does the IC50 (human LSD-1; [2]) read?
Answer: Its IC50 is under 100 nM.
